Test results as given in PubChem BioAssay (NCI).
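Step 1: Grow cells in 96-well plates. Step 2: Expose to compound for 48 hours at 5 concentrations. Step 3: Interpolate endpoints linearly; if unreached, use highest concentration. TGI is the concentration that stops growth completely.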

Assays:
Assay in all cases: growth of human tumour cells (NCI), 48 h
[1] = system: 786-0 renal
[2] = system: A549 NSCLC
[3] = system: ACHN renal
[4] = system: BT-549 breast
[5] = system: CAKI-1 renal
[6] = system: CCRF-CEM leukemia
[7] = system: COLO 205 colon
[8] = system: DU-145 prostate
[9] = system: EKVX NSCLC
[10] = system: HCC-2998 colon
[11] = system: HCT-116 colon
[12] = system: HCT-15 colon
[13] = system: HL-60(TB) leukemia
[14] = system: HOP-62 NSCLC
[15] = system: HOP-92 NSCLC
[16] = system: HS 578T breast
[17] = system: HT29 colon
[18] = system: IGROV1 ovarian
[19] = system: K-562 leukemia
[20] = system: KM12 colon
[21] = system: LOX IMVI melanoma
[22] = system: M14 melanoma
[23] = system: MALME-3M melanoma
[24] = system: MCF7 breast
[25] = system: MDA-MB-231 breast
[26] = system: MDA-MB-435
[27] = system: MDA-N
[28] = system: MOLT-4 leukemia
[29] = system: NCI-H226 lung
[30] = system: NCI-H23 lung
[31] = system: NCI-H522 lung
[32] = system: NCI/ADR-RES ovarian
[33] = system: OVCAR-3 ovarian
[34] = system: OVCAR-4 ovarian
[35] = system: OVCAR-5 ovarian
[36] = system: OVCAR-8 ovarian
[37] = system: PC-3 prostate
[38] = system: RPMI-8226 leukemia
[39] = system: RXF 393 renal
[40] = system: SF-268 CNS
[41] = system: SF-295 CNS
[42] = system: SF-539 CNS
[43] = system: SK-MEL-2 melanoma
[44] = system: SK-MEL-28 melanoma
[45] = system: SK-MEL-5 melanoma
[46] = system: SK-OV-3 ovarian
[47] = system: SN12C renal
[48] = system: SNB-19 CNS
[49] = system: SNB-75 CNS
[50] = system: SR leukemia
[51] = system: SW-620 colon
[52] = system: T-47D breast
[53] = system: TK-10 renal
[54] = system: U251 CNS
[55] = system: UACC-257 melanoma
[56] = system: UACC-62 melanoma
[57] = system: UO-31 renal
[58] = system: A498 renal
[59] = system: NCI-H460 lung

CC1(c2nc3ccccc3[nH]2)CCC(C(=O)O)C(C)(C)O1 (stereo not drawn)
TGI [1]: > 100 µM
TGI [2]: > 100 µM
TGI [3]: > 100 µM
TGI [4]: > 100 µM
TGI [5]: > 100 µM
TGI [6]: > 100 µM
TGI [7]: > 100 µM
TGI [8]: > 100 µM
TGI [9]: > 100 µM
TGI [10]: > 100 µM
TGI [11]: > 100 µM
TGI [12]: > 100 µM
TGI [13]: > 100 µM
TGI [14]: > 100 µM
TGI [15]: > 100 µM
TGI [16]: > 100 µM
TGI [17]: > 100 µM
TGI [18]: > 100 µM
TGI [19]: > 100 µM
TGI [20]: > 100 µM
TGI [21]: > 100 µM
TGI [22]: > 100 µM
TGI [23]: > 100 µM
TGI [24]: > 100 µM
TGI [25]: > 100 µM
TGI [26]: > 100 µM
TGI [27]: > 100 µM
TGI [28]: > 100 µM
TGI [29]: > 100 µM
TGI [30]: > 100 µM
TGI [31]: > 100 µM
TGI [32]: > 100 µM
TGI [33]: > 100 µM
TGI [34]: > 100 µM
TGI [35]: > 100 µM
TGI [36]: > 100 µM
TGI [37]: > 100 µM
TGI [38]: > 100 µM
TGI [39]: > 100 µM
TGI [40]: > 100 µM
TGI [41]: > 100 µM
TGI [42]: > 100 µM
TGI [43]: > 100 µM
TGI [44]: > 100 µM
TGI [45]: > 100 µM
TGI [46]: > 100 µM
TGI [47]: > 100 µM
TGI [48]: > 100 µM
TGI [49]: > 100 µM
TGI [50]: > 100 µM
TGI [51]: > 100 µM
TGI [52]: > 100 µM
TGI [53]: > 100 µM
TGI [54]: > 100 µM
TGI [55]: > 100 µM
TGI [56]: > 100 µM
TGI [57]: > 100 µM

OC(C#Cc1ccccc1)(c1ccccc1)c1ccccc1
TGI [1]: > 100 µM
TGI [58]: 83.4 µM
TGI [2]: 52.9 µM
TGI [3]: > 100 µM
TGI [4]: > 100 µM
TGI [5]: 61.8 µM
TGI [6]: 35.3 µM
TGI [7]: > 100 µM
TGI [8]: > 100 µM
TGI [9]: 82.4 µM
TGI [10]: > 100 µM
TGI [11]: > 100 µM
TGI [12]: > 100 µM
TGI [13]: > 100 µM
TGI [14]: > 100 µM
TGI [16]: > 100 µM
TGI [17]: 78.4 µM
TGI [18]: > 100 µM
TGI [19]: > 100 µM
TGI [20]: 78.4 µM
TGI [21]: 38 µM
TGI [22]: > 100 µM
TGI [23]: 60.2 µM
TGI [24]: 45.7 µM
TGI [25]: > 100 µM
TGI [26]: 56.3 µM
TGI [27]: 61.7 µM
TGI [28]: > 100 µM
TGI [29]: 87.3 µM
TGI [30]: > 100 µM
TGI [59]: 50.6 µM
TGI [31]: > 100 µM
TGI [32]: > 100 µM
TGI [33]: 85.3 µM
TGI [34]: > 100 µM
TGI [35]: > 100 µM
TGI [36]: > 100 µM
TGI [37]: > 100 µM
TGI [38]: 47.4 µM
TGI [40]: 54.9 µM
TGI [41]: 77.7 µM
TGI [42]: > 100 µM
TGI [43]: 55.4 µM
TGI [44]: > 100 µM
TGI [45]: 37.7 µM
TGI [46]: > 100 µM
TGI [47]: > 100 µM
TGI [48]: > 100 µM
TGI [49]: > 100 µM
TGI [50]: > 100 µM
TGI [51]: > 100 µM
TGI [52]: 78.1 µM
TGI [53]: 77.4 µM
TGI [54]: 83.4 µM
TGI [55]: > 100 µM
TGI [56]: > 100 µM
TGI [57]: > 100 µM

N#Cc1nc(-c2ccco2)oc1N
TGI [1]: > 10 µM
TGI [2]: > 10 µM
TGI [3]: > 10 µM
TGI [4]: > 10 µM
TGI [5]: > 10 µM
TGI [6]: > 10 µM
TGI [7]: > 10 µM
TGI [8]: > 10 µM
TGI [9]: > 10 µM
TGI [10]: > 10 µM
TGI [11]: > 10 µM
TGI [12]: > 10 µM
TGI [13]: > 10 µM
TGI [14]: > 10 µM
TGI [15]: > 10 µM
TGI [16]: > 10 µM
TGI [17]: > 10 µM
TGI [18]: > 10 µM
TGI [19]: > 10 µM
TGI [20]: > 10 µM
TGI [21]: > 10 µM
TGI [22]: > 10 µM
TGI [23]: > 10 µM
TGI [24]: > 10 µM
TGI [25]: > 10 µM
TGI [26]: > 10 µM
TGI [27]: > 10 µM
TGI [28]: > 10 µM
TGI [29]: > 10 µM
TGI [30]: > 10 µM
TGI [59]: > 10 µM
TGI [31]: > 10 µM
TGI [32]: > 10 µM
TGI [34]: > 10 µM
TGI [35]: > 10 µM
TGI [36]: > 10 µM
TGI [37]: > 10 µM
TGI [38]: > 10 µM
TGI [39]: > 10 µM
TGI [40]: > 10 µM
TGI [41]: > 10 µM
TGI [42]: > 10 µM
TGI [44]: > 10 µM
TGI [45]: > 10 µM
TGI [46]: > 10 µM
TGI [48]: > 10 µM
TGI [49]: > 10 µM
TGI [50]: > 10 µM
TGI [51]: > 10 µM
TGI [52]: > 10 µM
TGI [53]: > 10 µM
TGI [55]: > 10 µM
TGI [56]: > 10 µM
TGI [57]: > 10 µM
